Measurements published in publication PMC6019134, “1,2,6-Thiadiazinones as Novel Narrow Spectrum Calcium/Calmodulin-Dependent Protein Kinase Kinase 2 (CaMKK2) Inhibitors” (Molecules : A Journal of Synthetic Chemistry and Natural …, 2018).

Experiments:
Test in all cases: DSF thermal shift, kinase panel
Assay type in all cases: binding
Conditions in all cases: 10 μM compound
CDKL1 = biological target: T1, CDKL1 (Homo sapiens, UniProt Q00532)
T1 construct: purchased in-house (home-made panel, SGC-style construct names)
T1 sequence (Q00532 whole entry): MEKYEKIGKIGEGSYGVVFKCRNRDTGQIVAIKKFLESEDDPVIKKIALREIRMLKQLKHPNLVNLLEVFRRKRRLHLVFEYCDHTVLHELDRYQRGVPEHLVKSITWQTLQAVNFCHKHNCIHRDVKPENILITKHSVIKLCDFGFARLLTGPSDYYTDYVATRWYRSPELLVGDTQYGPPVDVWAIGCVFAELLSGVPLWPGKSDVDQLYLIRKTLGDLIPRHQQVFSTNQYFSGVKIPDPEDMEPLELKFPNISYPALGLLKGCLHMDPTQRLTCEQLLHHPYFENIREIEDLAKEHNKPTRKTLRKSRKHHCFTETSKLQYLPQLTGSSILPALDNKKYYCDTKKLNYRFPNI
Protocol: (§1) The corresponding dianilino-TDZs (1–5) were tested on a panel of 46 protein kinases representing the major kinome branches at a concentration of 10 μM using a Differential Scanning Fluorimetry (DSF). Only analogues 1–3 induced a significant (>2 °C) thermal shift when incubated with a subset of the proteins (Table 1).
(§2) Kinase selectivity assay—A home-made kinase panel was generated for the following enzymes: AAK1, BMP2K, BMX, BRAF, CAMK1D, CAMK1G, CAMKK1, CAMKK2B, CDC42BPA, CDK2, CDKL1, CHEK2, CLK1, CSNK1G1, CSNK1G3, CSNK2A1, DYRK1A, DYRK2A, EPHA2, GAK, GSG2, MAPK1, MAP2K7, MAPK14B, MAPK3, PHKG2, PIM1, PLK1, PKMYT1, PRPF4B, RPS6KA1A, RPS6KA5A, RPS6KA6A, SLK, SRPK1, SRPK2, STK3, STK6, STK10, STK17A, STK24, STK38L, TRIB2, TTK, VRK1 and VRK2. Proteins were produced in E. coli, purified in a Ni-chelate column, followed by overnight digestion using TEV protease (made in house with an N-terminal 6xHis tag) and dialysis to remove imidazole. To clear samples of uncleaved proteins and the TEV protease, samples were loaded on new Ni-chelate columns. The flow through was collected, concentrated and loaded to a HiLoad Superdex 200 16/600 column (GE Healthcare, Chicago, IL, USA) for final polishing and buffer exchange.
(§3) Starting from 100 µM protein stocks, our kinase panel enzymes were diluted to 1 µM in buffer 100 mM K2HPO4 pH 7.5 containing 150 mM NaCl, 10% glycerol and 5X dye (Applied Biosystems catalogue 4461806). The protein/dye mixture was transferred to a 384-well PCR microplate having 20 µL per well. Compounds in DMSO at 10 mM concentration were added in 20 nL volume, using a liquid handling device setup with a pin head, to make 10 µM compound concentration in the assay plate.
(§4) Protein thermal shift data was measured in a qPCR instrument (Applied Biosystems QuantStudio 6) programmed to equilibrate the plate at 25 °C for 5 min followed by ramping the temperature to 95 °C at a rate of 0.05 °C/s. Data was processed using Protein Thermal shift software (Applied Biosystems) by fitting experimental curves to a Boltzmann function to calculate differential thermal shifts (dTm) referenced to protein/dye in 0.2% DMSO.

BMP2K = biological target: T2, BMP2K (Homo sapiens, UniProt Q9NSY1)
T2 construct: purchased in-house (home-made panel, SGC-style construct names)
T2 sequence (Q9NSY1 whole entry): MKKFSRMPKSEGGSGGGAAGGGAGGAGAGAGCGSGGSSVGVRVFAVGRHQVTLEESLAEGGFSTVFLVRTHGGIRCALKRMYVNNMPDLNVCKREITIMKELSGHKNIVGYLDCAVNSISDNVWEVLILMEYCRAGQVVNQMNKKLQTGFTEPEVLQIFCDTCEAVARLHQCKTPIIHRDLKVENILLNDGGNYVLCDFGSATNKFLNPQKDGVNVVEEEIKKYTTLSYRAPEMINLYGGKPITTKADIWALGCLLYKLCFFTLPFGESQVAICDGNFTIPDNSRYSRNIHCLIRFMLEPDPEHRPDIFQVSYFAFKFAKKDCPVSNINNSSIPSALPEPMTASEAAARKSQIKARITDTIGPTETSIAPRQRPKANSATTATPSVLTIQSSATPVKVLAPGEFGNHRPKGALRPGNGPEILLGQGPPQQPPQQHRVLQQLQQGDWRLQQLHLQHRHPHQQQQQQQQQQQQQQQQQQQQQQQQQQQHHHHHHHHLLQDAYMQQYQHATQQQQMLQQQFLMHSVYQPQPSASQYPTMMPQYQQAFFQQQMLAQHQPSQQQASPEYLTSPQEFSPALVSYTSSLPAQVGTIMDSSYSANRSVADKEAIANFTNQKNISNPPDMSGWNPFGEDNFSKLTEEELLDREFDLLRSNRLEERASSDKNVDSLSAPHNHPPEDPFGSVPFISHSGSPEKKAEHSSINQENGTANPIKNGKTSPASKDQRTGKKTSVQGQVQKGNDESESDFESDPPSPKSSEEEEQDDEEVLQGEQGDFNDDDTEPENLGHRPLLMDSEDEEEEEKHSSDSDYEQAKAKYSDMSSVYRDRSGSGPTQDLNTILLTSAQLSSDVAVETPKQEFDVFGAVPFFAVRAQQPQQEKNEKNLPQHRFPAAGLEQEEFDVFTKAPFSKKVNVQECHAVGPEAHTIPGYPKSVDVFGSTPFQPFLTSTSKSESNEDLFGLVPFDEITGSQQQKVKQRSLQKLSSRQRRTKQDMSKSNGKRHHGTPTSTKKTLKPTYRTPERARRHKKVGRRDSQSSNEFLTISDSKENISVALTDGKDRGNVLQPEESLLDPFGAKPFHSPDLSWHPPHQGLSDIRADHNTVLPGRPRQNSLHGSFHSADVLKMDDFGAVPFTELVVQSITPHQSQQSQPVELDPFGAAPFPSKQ
Protocol: as §1, §2, §3, §4

GAKA = biological target: T3, GAKA (Homo sapiens, UniProt O14976)
T3 construct: purchased in-house (home-made panel, SGC-style construct names)
T3 sequence (O14976 1-1311): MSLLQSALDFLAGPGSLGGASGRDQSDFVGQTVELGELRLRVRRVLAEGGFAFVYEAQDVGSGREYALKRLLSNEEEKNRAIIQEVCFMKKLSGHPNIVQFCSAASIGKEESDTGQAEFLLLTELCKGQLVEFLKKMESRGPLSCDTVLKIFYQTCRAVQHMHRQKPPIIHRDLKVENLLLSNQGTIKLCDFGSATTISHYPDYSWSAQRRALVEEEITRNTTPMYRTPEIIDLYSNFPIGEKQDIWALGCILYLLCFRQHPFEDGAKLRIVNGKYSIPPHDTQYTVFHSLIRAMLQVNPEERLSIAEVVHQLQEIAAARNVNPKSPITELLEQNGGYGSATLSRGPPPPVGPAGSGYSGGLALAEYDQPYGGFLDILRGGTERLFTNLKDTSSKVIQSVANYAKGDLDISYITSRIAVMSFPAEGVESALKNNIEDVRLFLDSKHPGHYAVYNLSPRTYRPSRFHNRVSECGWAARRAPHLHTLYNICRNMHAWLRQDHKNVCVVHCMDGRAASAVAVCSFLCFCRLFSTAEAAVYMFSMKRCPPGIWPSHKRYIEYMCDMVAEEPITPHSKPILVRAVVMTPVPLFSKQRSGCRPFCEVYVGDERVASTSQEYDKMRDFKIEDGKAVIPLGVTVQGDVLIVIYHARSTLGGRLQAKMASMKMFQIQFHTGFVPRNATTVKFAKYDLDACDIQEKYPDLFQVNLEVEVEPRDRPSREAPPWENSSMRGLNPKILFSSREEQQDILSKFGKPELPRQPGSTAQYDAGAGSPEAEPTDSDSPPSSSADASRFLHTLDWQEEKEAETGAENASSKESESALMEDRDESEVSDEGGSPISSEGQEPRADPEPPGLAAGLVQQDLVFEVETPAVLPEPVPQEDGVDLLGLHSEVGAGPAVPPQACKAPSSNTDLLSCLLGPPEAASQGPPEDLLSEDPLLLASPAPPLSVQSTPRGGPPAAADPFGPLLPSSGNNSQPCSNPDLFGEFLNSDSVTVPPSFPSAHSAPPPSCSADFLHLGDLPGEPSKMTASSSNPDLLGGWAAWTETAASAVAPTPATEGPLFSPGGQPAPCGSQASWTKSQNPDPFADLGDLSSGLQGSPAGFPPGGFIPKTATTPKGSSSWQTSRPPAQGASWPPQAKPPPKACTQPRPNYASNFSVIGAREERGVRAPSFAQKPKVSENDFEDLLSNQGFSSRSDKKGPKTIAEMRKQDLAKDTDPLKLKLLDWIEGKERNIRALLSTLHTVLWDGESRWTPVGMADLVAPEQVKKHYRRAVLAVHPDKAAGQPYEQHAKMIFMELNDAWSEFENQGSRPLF
Protocol: as §1, §2, §3, §4

PLK1A = biological target: T4, PLK1A (Homo sapiens, UniProt P53350)
T4 construct: purchased in-house (home-made panel, SGC-style construct names)
T4 sequence (P53350 whole entry): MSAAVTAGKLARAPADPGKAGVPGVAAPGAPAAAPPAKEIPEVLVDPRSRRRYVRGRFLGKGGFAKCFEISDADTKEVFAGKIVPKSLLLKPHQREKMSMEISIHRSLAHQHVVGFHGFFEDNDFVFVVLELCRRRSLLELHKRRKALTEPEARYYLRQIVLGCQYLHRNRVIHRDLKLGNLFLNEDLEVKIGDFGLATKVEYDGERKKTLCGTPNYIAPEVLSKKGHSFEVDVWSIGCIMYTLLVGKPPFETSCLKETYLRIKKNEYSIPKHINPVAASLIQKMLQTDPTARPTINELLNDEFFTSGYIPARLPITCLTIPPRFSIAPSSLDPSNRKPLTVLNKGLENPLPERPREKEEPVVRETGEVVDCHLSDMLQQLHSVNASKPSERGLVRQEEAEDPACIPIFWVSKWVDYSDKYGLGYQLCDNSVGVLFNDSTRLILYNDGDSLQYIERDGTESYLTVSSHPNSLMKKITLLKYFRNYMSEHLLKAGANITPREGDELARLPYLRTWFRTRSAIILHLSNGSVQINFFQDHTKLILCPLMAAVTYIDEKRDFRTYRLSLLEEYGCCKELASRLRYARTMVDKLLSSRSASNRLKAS
Protocol: as §1, §2, §3, §4

RPS6KA6A = biological target: T5, RPS6KA6A (Homo sapiens, UniProt Q9UK32)
T5 construct: purchased in-house (home-made panel, SGC-style construct names)
T5 sequence (Q9UK32 whole entry): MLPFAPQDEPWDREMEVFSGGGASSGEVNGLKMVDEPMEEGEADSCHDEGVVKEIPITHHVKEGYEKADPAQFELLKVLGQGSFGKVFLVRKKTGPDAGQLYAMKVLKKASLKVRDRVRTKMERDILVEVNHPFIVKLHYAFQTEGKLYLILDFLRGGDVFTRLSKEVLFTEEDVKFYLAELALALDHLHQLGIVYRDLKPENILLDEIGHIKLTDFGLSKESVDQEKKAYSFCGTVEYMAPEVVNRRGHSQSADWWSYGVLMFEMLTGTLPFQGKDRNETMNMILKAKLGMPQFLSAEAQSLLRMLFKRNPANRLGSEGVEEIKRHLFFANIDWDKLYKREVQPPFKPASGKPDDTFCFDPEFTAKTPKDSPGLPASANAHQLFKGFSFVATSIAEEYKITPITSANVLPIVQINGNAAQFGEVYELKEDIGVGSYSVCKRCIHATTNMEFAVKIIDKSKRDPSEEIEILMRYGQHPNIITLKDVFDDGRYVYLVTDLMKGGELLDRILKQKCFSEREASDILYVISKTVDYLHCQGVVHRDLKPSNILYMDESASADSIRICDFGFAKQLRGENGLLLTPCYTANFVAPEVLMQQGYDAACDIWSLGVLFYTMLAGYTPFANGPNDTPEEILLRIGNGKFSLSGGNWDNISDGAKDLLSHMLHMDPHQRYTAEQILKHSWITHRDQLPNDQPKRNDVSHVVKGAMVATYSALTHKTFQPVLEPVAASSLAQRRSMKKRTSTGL
Protocol: as §1, §2, §3, §4

SRPK1A = biological target: T6, SRPK1A (Homo sapiens, UniProt Q96SB4)
T6 construct: purchased in-house (home-made panel, SGC-style construct names)
T6 sequence (Q96SB4 whole entry): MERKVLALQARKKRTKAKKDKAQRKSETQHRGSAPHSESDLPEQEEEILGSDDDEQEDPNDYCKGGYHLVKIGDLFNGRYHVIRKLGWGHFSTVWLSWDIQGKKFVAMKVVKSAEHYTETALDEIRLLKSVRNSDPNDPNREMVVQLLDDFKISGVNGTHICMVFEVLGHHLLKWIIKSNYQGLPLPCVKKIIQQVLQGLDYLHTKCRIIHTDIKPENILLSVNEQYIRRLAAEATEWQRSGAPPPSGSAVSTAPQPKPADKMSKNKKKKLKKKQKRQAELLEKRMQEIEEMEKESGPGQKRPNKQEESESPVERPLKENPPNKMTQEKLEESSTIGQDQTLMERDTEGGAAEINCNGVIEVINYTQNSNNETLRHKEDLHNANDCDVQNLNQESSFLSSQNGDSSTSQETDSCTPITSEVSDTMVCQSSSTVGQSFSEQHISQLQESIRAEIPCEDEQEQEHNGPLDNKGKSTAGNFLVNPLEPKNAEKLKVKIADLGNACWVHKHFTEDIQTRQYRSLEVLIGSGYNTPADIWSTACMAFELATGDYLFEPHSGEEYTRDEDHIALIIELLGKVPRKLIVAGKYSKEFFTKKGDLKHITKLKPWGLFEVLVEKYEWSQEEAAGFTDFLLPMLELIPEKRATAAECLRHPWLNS
Protocol: as §1, §2, §3, §4

STK10A = biological target: T7, STK10A (Homo sapiens, UniProt O94804)
T7 construct: TEV-cleavable (cleaved yes); made in house; host or cells: E. coli
T7 sequence (O94804 whole entry): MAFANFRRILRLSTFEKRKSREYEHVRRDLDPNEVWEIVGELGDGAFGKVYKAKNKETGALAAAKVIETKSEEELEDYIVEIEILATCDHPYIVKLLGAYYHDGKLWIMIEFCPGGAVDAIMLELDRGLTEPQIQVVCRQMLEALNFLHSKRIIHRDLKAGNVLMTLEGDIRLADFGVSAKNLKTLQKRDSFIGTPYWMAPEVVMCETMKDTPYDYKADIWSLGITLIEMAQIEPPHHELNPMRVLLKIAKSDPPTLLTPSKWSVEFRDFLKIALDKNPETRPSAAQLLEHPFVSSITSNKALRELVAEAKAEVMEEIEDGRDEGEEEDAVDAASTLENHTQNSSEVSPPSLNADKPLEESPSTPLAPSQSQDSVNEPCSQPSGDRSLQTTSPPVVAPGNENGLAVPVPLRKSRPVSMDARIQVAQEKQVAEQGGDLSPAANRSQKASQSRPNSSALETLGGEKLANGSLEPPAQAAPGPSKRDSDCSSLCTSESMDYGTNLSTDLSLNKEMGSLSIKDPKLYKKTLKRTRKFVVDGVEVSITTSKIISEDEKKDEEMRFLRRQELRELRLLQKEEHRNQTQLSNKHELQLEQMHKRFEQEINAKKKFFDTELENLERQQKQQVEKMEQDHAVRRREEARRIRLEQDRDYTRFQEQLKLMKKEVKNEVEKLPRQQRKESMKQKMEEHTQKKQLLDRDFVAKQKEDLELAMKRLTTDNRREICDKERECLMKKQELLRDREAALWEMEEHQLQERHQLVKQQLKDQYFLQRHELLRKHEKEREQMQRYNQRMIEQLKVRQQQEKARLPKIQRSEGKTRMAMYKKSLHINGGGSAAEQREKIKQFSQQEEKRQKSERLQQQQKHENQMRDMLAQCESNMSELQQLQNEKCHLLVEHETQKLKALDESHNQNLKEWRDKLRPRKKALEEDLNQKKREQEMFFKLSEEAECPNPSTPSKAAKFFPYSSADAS
Protocol: as §1, §2, §3, §4

Row | Compound | ΔTm at 10 µM (CDKL1) | ΔTm at 10 µM (BMP2K) | ΔTm at 10 µM (GAKA) | ΔTm at 10 µM (PLK1A) | ΔTm at 10 µM (RPS6KA6A) | ΔTm at 10 µM (SRPK1A) | ΔTm at 10 µM (STK10A)
1 | CNC(=O)c1ccccc1Nc1nsnc(Nc2ccc(N3CCOCC3)cc2)c1=O [Compound 5, N-Methyl-2-({5-[(4-morpholinophenyl)amino]-4-oxo-4H-1,2,6-thiadiazin-3-yl}amino)benzamide] | 0.5 °C | -0.1 °C | -0.4 °C | 0.2 °C | -0.6 °C | 0 °C | -0.4 °C
2 | CNC(=O)c1ccccc1Nc1nsnc(Nc2cccc(CS(C)(=O)=O)c2)c1=O [Compound 4, N-Methyl-2-([5-({3-[(methylsulfonyl)methyl]phenyl}amino)-4-oxo-4H-1,2,6-thiadiazin-3-yl]-amino}-benzamide] | 0.5 °C | -0.1 °C | -0.4 °C | 0.2 °C | -0.3 °C | 0 °C | 0.2 °C
3 | Cc1ccc(Nc2nsnc(Nc3cccc(C(N)=O)c3)c2=O)cc1O [Compound 1, 3-({5-[(3-Hydroxy-4-methylphenyl)amino]-4-oxo-4H-1,2,6-thiadiazin-3-yl}amino)benzamide] | 1.2 °C | -0.4 °C | -0.3 °C | 0.3 °C | 0.5 °C | 0 °C | 0.5 °C
4 | Cc1ccc(Nc2nsnc(Nc3ccc(C(N)=O)cc3)c2=O)cc1O [Compound 2, 4-({5-[(3-Hydroxy-4-methylphenyl)amino]-4-oxo-4H-1,2,6-thiadiazin-3-yl}amino)benzamide] | 1 °C | -0.2 °C | 1.4 °C | -0.2 °C | 2.6 °C | 1.8 °C | 0.9 °C
5 | Cc1ccc(Nc2nsnc(Nc3ccc4c(c3)CS(=O)(=O)C4)c2=O)cc1O [Compound 3, 3-[(2,2-Dioxido-1,3-dihydrobenzo[c]thiophen-5-yl)amino]-5-[(3-hydroxy-4-methylphenyl)amino]-4H-1,2,6-thiadiazin-4-one] | 0.9 °C | 0.1 °C | 0 °C | 1.1 °C | 0.9 °C | 0 °C | 2.2 °C
